Source: patent publication US20220105113A1, “CYLODIMER OF DEHYDROSALICORTIN AND DERIVATIVES THEREOF ISOLATED FROM PLANT OF THE GENUS SALIX FOR USE IN CANCER THERAPY” (ROTHAMSTED RESEARCH LTD, priority 2019, published 2022)
In brackets after ≈: the same amount, converted by molar mass. Where two headings read alike, the source gives them in different places.

How the values were obtained:
Type in all cases: cell-based
COLO-680N = assay: MTT dye reduction cell viability assay, COLO-680N oesophageal cancer cell line; settings: Homo sapiens
Procedure: (§1) The activity of miyabeacin was tested against a range of cancer cell lines including those in neuroblastoma and breast, oesophageal and ovarian cancers (Table 10).
(§2) The MYCN-amplified neuroblastoma cell line UKF-NB-3 was established from a stage 4 neuroblastoma patient (Kotchetkov et al., 2005). Also tested was the vincristine-resistant UKF-NB-3 sub-line UKF-NB-3^rVCR (Rothwell et al., 2010) (adapted to grow in the presence of vincristine 10 ng/mL). At a concentration of 20 μg/mL of miyabeacin, the cell viability, relative to non-treated cells, after 120 hours was 0% for UKF-NB-3 and 4.22±2.89% for the vincristine resistant UKF-NB-3^rVCR line. The oesophageal cancer cell line COLO-680N was obtained from ATCC (Manassas, Va., USA) and the ovarian cancer cell line COLO-704 from DSMZ (Braunschweig, Germany). All cell lines were propagated in Iscove's modified Dulbecco's medium (IMDM) supplemented with 10% FCS, 100 IU/ml penicillin and […] streptomycin at 37° C. Cells were routinely tested for mycoplasma contamination and authenticated by short tandem repeat profiling. Cell viability was determined by the 3-(4,5-dimethylthiazol-2-yl)-2,5-diphenyltetrazolium bromide (MTT) dye reduction assay after 120 h incubation as described previously (Michaelis et al., 2015). Briefly, 5000 cells (suspended in 100 μL IMDM supplemented with 10% FCS, 100 IU/ml penicillin and 100 mg/ml streptomycin) were incubated in 96-well plates at 37° C. and 5% CO2 in the absence or presence of varying compound concentrations for 120 h. Then, 25 μL of MTT solution (2 μg/mL dissolved in PBS) were added for 4 h. This was followed by the addition of 100 Lp of 20% sodium dodecyl sulphate (50:50 purified water/DMF) solution adjusted to pH 4.7 for an additional 4 h in order to lyse cells and dissolve formazan precipitates. Plates were then read at 600 nm. The relative viability was determined as the relative reduction of the optical density relative to an untreated cell control (=100%).

[1] = test system: UKF-NB-3, COLO-680N and COLO-704; assay: Replicated IC50 determination (MTT) on three selected lines; settings: range of means over UKF-NB-3, COLO-680N and COLO-704
Procedure: as §2, with “Briefly, 5000 cells (suspended in 100 μL IMDM supplemented with 10% FCS, 100 IU/ml penicillin and 100 mg/ml streptomycin) were incubated in 96-well plates at 37° C. and 5% CO2 in the absence or presence of varying compound concentrations for 120 h. Then, 25 μL of MTT solution (2 μg/mL dissolved in PBS) were added for 4 h. This was followed by the addition of 100 Lp of 20% sodium dodecyl sulphate (50:50 purified water/DMF) solution adjusted to pH 4.7 for an additional 4 h in order to lyse cells and dissolve formazan precipitates.” left out

EFO-21 = assay: MTT dye reduction cell viability assay, EFO-21 ovarian cancer cell line; settings: Homo sapiens, EFO-21, MTT 120 h, read-out: Miyabeacin IC50
Procedure: as §1
as §2, with “Cells were routinely tested for mycoplasma contamination and authenticated by short tandem repeat profiling.” left out, “Briefly, 5000 cells (suspended in 100 μL IMDM supplemented with 10% FCS, 100 IU/ml penicillin and 100 mg/ml streptomycin) were incubated in 96-well plates at 37° C. and 5% CO2 in the absence or presence of varying compound concentrations for 120 h. Then, 25 μL of MTT solution (2 μg/mL dissolved in PBS) were added for 4 h. This was followed by the addition of 100 Lp of 20% sodium dodecyl sulphate (50:50 purified water/DMF) solution adjusted to pH 4.7 for an additional 4 h in order to lyse cells and dissolve formazan precipitates.” left out

MCF-7 = assay: MTT dye reduction cell viability assay, MCF-7 breast cancer cell line; settings: Homo sapiens, MCF7, MCF-7, MTT 120 h, read-out: Miyabeacin IC50
Procedure: as §1
as §2, with “Cells were routinely tested for mycoplasma contamination and authenticated by short tandem repeat profiling.” left out, “Briefly, 5000 cells (suspended in 100 μL IMDM supplemented with 10% FCS, 100 IU/ml penicillin and 100 mg/ml streptomycin) were incubated in 96-well plates at 37° C. and 5% CO2 in the absence or presence of varying compound concentrations for 120 h. Then, 25 μL of MTT solution (2 μg/mL dissolved in PBS) were added for 4 h. This was followed by the addition of 100 Lp of 20% sodium dodecyl sulphate (50:50 purified water/DMF) solution adjusted to pH 4.7 for an additional 4 h in order to lyse cells and dissolve formazan precipitates.” left out

COLO-704 = assay: MTT dye reduction cell viability assay, COLO-704 ovarian cancer cell line
Procedure: as §1, §2

UKF-NB-3^rVCR = assay: MTT dye reduction cell viability assay, vincristine-resistant UKF-NB-3 sub-line; settings: 20 μg/mL, after 120 hours, vincristine resistant UKF-NB-3^rVCR; read-out: cell viability, relative to non-treated cells
Procedure: as §2, with “Briefly, 5000 cells (suspended in 100 μL IMDM supplemented with 10% FCS, 100 IU/ml penicillin and 100 mg/ml streptomycin) were incubated in 96-well plates at 37° C. and 5% CO2 in the absence or presence of varying compound concentrations for 120 h. Then, 25 μL of MTT solution (2 μg/mL dissolved in PBS) were added for 4 h. This was followed by the addition of 100 Lp of 20% sodium dodecyl sulphate (50:50 purified water/DMF) solution adjusted to pH 4.7 for an additional 4 h in order to lyse cells and dissolve formazan precipitates.” left out

BT-474 = assay: MTT dye reduction cell viability assay, BT-474 breast cancer cell line; settings: Homo sapiens, BT-474, MTT 120 h, read-out: Miyabeacin IC50
Procedure: as §1
as §2, with “Cells were routinely tested for mycoplasma contamination and authenticated by short tandem repeat profiling.” left out, “Briefly, 5000 cells (suspended in 100 μL IMDM supplemented with 10% FCS, 100 IU/ml penicillin and 100 mg/ml streptomycin) were incubated in 96-well plates at 37° C. and 5% CO2 in the absence or presence of varying compound concentrations for 120 h. Then, 25 μL of MTT solution (2 μg/mL dissolved in PBS) were added for 4 h. This was followed by the addition of 100 Lp of 20% sodium dodecyl sulphate (50:50 purified water/DMF) solution adjusted to pH 4.7 for an additional 4 h in order to lyse cells and dissolve formazan precipitates.” left out

UKF-NB-3 = assay: MTT dye reduction cell viability assay, UKF-NB-3 neuroblastoma cell line
Procedure: as §1, §2

`O=C(OCc1ccccc1O[C@H]1OC(CO)[C@H](O)C(O)C1O)[C@@]1(O)C(=O)C2C=CC1C1C2C=CC(=O)[C@]1(O)C(=O)OCc1ccccc1O[C@H]1OC(CO)[C@H](O)C(O)C1O` (stereo partly drawn) [miyabeacin] gave an IC50 (COLO-680N; expt 1, read-out: miyabeacin IC50 concentration expt 1) of 5.08 µg/mL, an IC50 (COLO-680N; expt 2, read-out: miyabeacin IC50 concentration expt 2) of 15.1 µg/mL and an IC50 (COLO-680N; expt 3, read-out: miyabeacin IC50 concentration expt 3) of 51.5 µg/mL. The IC50 (COLO-680N; mean of 3 expts, read-out: IC50 mean) was 28.3 µM, the IC50 (COLO-680N; mean of 3 expts, read-out: miyabeacin IC50 concentration mean) was 23.9 µg/mL and the IC50 (COLO-680N; oesophageal, MTT 120 h, read-out: Miyabeacin IC50) was 5.08 µg/mL. For the same molecule, the IC50 [1] was 17.2 to 40.2 µM, the IC50 (EFO-21) was 12.7 µg/mL (≈ 15 µM) and the IC50 (MCF-7) was 2.19 µg/mL (≈ 2.59 µM). The IC50 (COLO-704; COLO-704, expt 1, read-out: miyabeacin IC50 concentration expt 1) was 20.2 µg/mL, the IC50 (COLO-704; COLO-704, expt 2, read-out: miyabeacin IC50 concentration expt 2) was 32.4 µg/mL and the IC50 (COLO-704; COLO-704, expt 3, read-out: miyabeacin IC50 concentration expt 3) was 50.8 µg/mL. For the same molecule, the IC50 (COLO-704; COLO-704, mean of 3 expts, read-out: IC50 mean) was 40.2 µM, the IC50 (COLO-704; COLO-704, mean of 3 expts, read-out: miyabeacin IC50 concentration mean) was 34.5 µg/mL and the IC50 (COLO-704; ovarian, COLO-704, MTT 120 h, read-out: Miyabeacin IC50) was 20.2 µg/mL. It also gave a viability at 20 µg/mL (UKF-NB-3^rVCR) of 4.22 ± 2.89%, an IC50 (BT-474) of 27 µg/mL (≈ 32 µM) and a viability at 20 µg/mL (UKF-NB-3; 20 μg/mL, after 120 hours, UKF-NB-3, read-out: cell viability, relative to non-treated cells) of 0%. For the same molecule, the IC50 (UKF-NB-3; UKF-NB-3, expt 1, read-out: miyabeacin IC50 concentration expt 1) was 7.12 µg/mL, the IC50 (UKF-NB-3; UKF-NB-3, expt 2, read-out: miyabeacin IC50 concentration expt 2) was 21 µg/mL and the IC50 (UKF-NB-3; UKF-NB-3, expt 3, read-out: miyabeacin IC50 concentration expt 3) was 15.3 µg/mL. For the same molecule, the IC50 (UKF-NB-3; UKF-NB-3, mean of 3 expts, read-out: IC50 mean) was 17.2 µM, the IC50 (UKF-NB-3; UKF-NB-3, mean of 3 expts, read-out: miyabeacin IC50 concentration mean) was 14.5 µg/mL and the IC50 (UKF-NB-3; neuroblastoma, UKF-NB-3, MTT 120 h, read-out: Miyabeacin IC50) was 7.12 µg/mL.
